The values that follow come from patent US9802941B2, “Compounds and methods for inhibiting histone demethylases” (Gilead Sciences, Inc., priority 2014, dated 2017).

Type in all cases: biochemical
The target in test [1] is T1, KDM2B (FBXL10) (Homo sapiens, UniProt Q8NHM5).
T1 construct: KDM2B; BPS,; 1-650; Bac; purchased BPS Bioscience, US; host or cells: baculovirus system
T1 sequence (Q8NHM5 1-650): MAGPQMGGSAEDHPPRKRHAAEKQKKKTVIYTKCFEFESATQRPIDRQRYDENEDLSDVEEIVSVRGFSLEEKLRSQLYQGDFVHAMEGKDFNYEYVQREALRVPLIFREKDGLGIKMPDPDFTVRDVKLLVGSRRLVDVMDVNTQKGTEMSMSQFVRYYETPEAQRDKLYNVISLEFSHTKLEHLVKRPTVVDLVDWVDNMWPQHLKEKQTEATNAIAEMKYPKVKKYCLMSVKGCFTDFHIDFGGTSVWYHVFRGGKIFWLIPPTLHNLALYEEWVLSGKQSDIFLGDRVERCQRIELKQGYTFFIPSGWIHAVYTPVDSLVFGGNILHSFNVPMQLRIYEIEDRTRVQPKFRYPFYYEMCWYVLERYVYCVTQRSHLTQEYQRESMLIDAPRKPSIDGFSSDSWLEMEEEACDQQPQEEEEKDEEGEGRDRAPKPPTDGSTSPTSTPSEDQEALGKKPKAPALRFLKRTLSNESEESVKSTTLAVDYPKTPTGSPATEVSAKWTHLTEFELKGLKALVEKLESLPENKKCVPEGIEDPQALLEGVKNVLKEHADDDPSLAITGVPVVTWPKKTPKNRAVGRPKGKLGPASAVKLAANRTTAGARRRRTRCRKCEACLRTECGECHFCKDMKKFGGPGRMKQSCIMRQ
Put plainly: Histone lysine demethylase AlphaLISA assay, KDM2B. In short, it runs like this: (§1)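 Steps: enzyme in Hepes buffer with 5 μM Fe(II) and 0.1% BSA; add to DMSO compound; incubate 10 minutes; add substrate, incubate at RT; add acceptor beads, then streptavidin donor beads; incubate in dark; read AlphaLISA.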

The target in test [2] is T2, KDM4C (JMJD2C) (Homo sapiens, UniProt Q9H3R0).
T2 construct: KDM4C; BRIC, Denmark; 1-349; E. coli; host or cells: E. coli
T2 sequence (Q9H3R0 1-349): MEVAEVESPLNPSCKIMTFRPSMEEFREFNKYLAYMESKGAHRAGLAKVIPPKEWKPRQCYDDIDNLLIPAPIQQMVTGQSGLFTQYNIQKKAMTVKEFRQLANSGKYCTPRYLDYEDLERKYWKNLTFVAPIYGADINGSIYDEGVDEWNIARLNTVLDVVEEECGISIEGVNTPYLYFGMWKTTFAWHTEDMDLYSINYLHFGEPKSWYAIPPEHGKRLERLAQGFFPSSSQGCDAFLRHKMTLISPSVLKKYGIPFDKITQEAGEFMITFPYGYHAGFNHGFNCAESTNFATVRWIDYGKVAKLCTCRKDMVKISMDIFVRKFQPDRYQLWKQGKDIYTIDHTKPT
Put plainly: Histone lysine demethylase AlphaLISA assay, KDM4C. In short, it runs like this:
as §1

Test [3] concerns the target T3, PHF8 (KDM7) (Homo sapiens, UniProt Q9UPP1).
T3 construct: KDM7 (PHF8); BRIC; 1-1322; Bac
As to the kind of experiment: Histone lysine demethylase AlphaLISA assay, PHF8. The method, boiled down: as §1
(In general: In Alpha technology, singlet oxygen from a donor bead excites a nearby acceptor bead.)

For test [4], the target named is T4, KDM5B (PLU-1) (Homo sapiens, UniProt Q9UGL1).
T4 construct: BRIC; 1-809; E. coli; host or cells: E. coli
T4 sequence (Q9UGL1 1-809): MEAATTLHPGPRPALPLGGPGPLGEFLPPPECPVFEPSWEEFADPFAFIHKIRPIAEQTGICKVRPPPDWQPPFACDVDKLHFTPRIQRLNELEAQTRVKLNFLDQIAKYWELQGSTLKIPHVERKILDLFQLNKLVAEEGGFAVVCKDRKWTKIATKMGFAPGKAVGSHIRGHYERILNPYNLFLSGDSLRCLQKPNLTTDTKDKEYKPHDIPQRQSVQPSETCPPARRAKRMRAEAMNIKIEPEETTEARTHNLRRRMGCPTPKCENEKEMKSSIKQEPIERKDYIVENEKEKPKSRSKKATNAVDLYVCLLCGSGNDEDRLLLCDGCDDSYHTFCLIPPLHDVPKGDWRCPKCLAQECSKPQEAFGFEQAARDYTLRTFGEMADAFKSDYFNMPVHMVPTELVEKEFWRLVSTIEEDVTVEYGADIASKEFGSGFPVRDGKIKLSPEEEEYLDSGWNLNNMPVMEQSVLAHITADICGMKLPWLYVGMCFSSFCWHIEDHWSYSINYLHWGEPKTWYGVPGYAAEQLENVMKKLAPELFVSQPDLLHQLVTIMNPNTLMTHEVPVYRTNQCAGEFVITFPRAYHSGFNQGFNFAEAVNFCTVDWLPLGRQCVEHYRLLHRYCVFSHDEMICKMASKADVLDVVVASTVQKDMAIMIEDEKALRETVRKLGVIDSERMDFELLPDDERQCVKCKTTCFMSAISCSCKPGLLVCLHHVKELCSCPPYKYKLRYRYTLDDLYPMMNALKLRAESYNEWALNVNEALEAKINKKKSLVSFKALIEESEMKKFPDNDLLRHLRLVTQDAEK
As to the kind of experiment: Histone lysine demethylase AlphaLISA assay, KDM5B. The method, boiled down: as §1

Where [5] appears, read: AlphaLISA, in vitro, read-out: HDME Inhibition KDM2B.
Where [6] appears, read: AlphaLISA assay, read-out: HDME Inhibition KDM4C (IC50).
Setting [7] is: AlphaLISA, in vitro, read-out: HDME Inhibition KDM4C.
Setting [8] is: AlphaLISA, in vitro, read-out: HDME Inhibition PHF8.
Setting [9] is: AlphaLISA assay, read-out: HDME Inhibition KDM5B (IC50).
The mark [10] stands for this setting: AlphaLISA, in vitro, read-out: HDME Inhibition KDM5B.
The mark [11] stands for this setting: AlphaLISA assay, read-out: HDME Inhibition PHF8 (IC50).

Like-named read-outs stand apart in the source and are kept apart here.

T3 sequence (Q9UPP1 37-440 limits assumed): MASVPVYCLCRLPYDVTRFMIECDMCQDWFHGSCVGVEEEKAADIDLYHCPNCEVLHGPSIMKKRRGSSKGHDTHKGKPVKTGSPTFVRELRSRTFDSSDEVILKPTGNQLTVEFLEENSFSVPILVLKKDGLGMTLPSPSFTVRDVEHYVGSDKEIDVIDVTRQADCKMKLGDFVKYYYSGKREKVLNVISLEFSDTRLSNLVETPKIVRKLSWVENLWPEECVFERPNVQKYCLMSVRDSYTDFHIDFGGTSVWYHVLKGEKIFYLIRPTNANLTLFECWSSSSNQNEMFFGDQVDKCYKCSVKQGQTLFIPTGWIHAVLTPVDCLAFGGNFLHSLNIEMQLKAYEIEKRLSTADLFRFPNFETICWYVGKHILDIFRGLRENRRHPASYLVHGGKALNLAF

For `Cc1nnc(CNCc2cc(C(=O)O)cc(CO)n2)n1CCCC(C)C` [Compound 70, 2-(hydroxymethyl)-6-[({[5-methyl-4-(4-methylpentyl)-4H-1,2,4-triazol-3-yl]methyl}amino)methyl]pyridine-4-carboxylic acid], the IC50 in test [1] (setting [5]) was 485 nM; in test [2] (setting [6]), > 10000 nM; in test [2] (setting [7]), > 10000 nM; in test [3] (setting [8]), 1750 nM; in test [4], 559 nM.
With `O=C(O)c1cc(CO)nc(CNCc2nncn2CCc2cc(Cl)cc(Cl)c2)c1` [Compound 55, 2-{[({4-[2-(3,5-dichlorophenyl)ethyl]-4H-1,2,4-triazol-3-yl}methyl)amino]methyl}-6-(hydroxymethyl)pyridine-4-carboxylic acid], the IC50 in test [1] (setting [5]) is 656 nM; in test [2] (setting [6]) it was > 10000 nM; in test [2] (setting [7]), > 10000 nM; in test [3] (setting [8]), 1300 nM; in test [4], 1780 nM.
As for `O=C(O)c1cc(CO)nc(CNCc2nc(CO)cn2Cc2ccc(F)cc2)c1` [Compound 88, 2-{[({1-[(4-fluorophenyl)methyl]-4-(hydroxymethyl)-1H-imidazol-2-yl}methyl}amino]methyl}-6-(hydroxymethyl)pyridine-4-carboxylic acid], the IC50 in test [1] (setting [5]) was determined as 585 nM; in test [2] (setting [7]), 3470 nM; in test [3] (setting [8]), 1270 nM; in test [4], 246 nM.
As for `CCc1nnc(CNCc2cc(C(=O)O)cc(CO)n2)n1Cc1ccc(F)cc1` [Compound 64, 2-{[({5-ethyl-4-[(4-Fluorophenyl)methyl]-4H-1,2,4-triazol-3-yl}methyl)amino]methyl}-6-(hydroxymethyl)pyridine-4-carboxylic acid], the IC50 in test [1] (setting [5]) was 104 nM; in test [2] (setting [6]), > 10000 nM; in test [2] (setting [7]), > 10000 nM; in test [3] (setting [8]) it was 246 nM; in test [4] (setting [9]), > 10000 nM; in test [4] (setting [10]), > 10000 nM.
Consider `C=CCn1ccnc1CNCc1cc(C(=O)O)cc(C)n1` [Compound 75, 2-methyl-6-[({[1-(prop-2-en-1-yl)-1H-imidazol-2-yl]methyl}amino)methyl]pyridine-4-carboxylic acid], for which the IC50 in test [1] (setting [5]) was 587 nM; in test [2] (setting [6]), > 10000 nM; in test [2] (setting [7]) it was > 10000 nM; in test [3] (setting [8]) it was 1270 nM; in test [4], 431 nM.
As for `CC(O)c1nnc(CNCc2cc(C(=O)O)cc(CO)n2)n1Cc1ccc(F)cc1` (stereo not drawn) [Compound 77, 2-{[({4-[(4-fluorophenyl)methyl]-5-(1-hydroxyethyl)-4H-1,2,4-triazol-3-yl}methyl)amino]methyl}-6-(hydroxymethyl)pyridine-4-carboxylic acid], the IC50 in test [1] (setting [5]) is 379 nM; in test [2] (setting [6]), > 10000 nM; in test [2] (setting [7]), > 10000 nM; in test [3] (setting [8]) it was 1090 nM; in test [4] (setting [9]), > 10000 nM; in test [4] (setting [10]), > 10000 nM.
As to `Cc1cc(C(=O)O)cc(CNCc2nccn2Cc2cccc(CN)c2)n1` [Compound 48, 2-({[(1-{[3-(aminomethyl)phenyl]methyl}-1H-imidazol-2-yl)methyl]amino}methyl)-6-methylpyridine-4-carboxylic acid], the IC50 in test [1] (AlphaLISA assay, read-out: HDME Inhibition KDM2B (IC50)) is > 10000 nM; in test [1] (setting [5]), > 10000 nM; in test [2] (setting [6]), > 10000 nM; in test [2] (setting [7]) it was > 10000 nM; in test [3] (setting [11]), > 10000 nM; in test [3] (setting [8]) it was > 10000 nM. Moreover, the IC50 in test [4] (setting [9]) and in test [4] (setting [10]) was > 10000 nM throughout.
For the molecule `Cc1cc(C(=O)O)cc(CNCc2nnc3n2C(c2ccccc2)CNC3)n1` (stereo not drawn) [Compound 113, 2-methyl-6-{[({5-phenyl-5H,6H,7H,8H-[1,2,4]triazolo[4,3-a]pyrazin-3-yl}methyl)amino]methyl}pyridine-4-carboxylic acid], the IC50 is 2830 nM in test [1] (setting [5]); > 10000 nM in test [2] (setting [6]); > 10000 nM in test [2] (setting [7]); > 10000 nM in test [3] (setting [11]); > 10000 nM in test [3] (setting [8]); > 10000 nM in test [4] (setting [9]). Further, in test [4] (setting [10]), the IC50 was > 10000 nM.
`Cc1cc(C(=O)O)cc(CNCc2nccn2CC(C)C)n1` [Compound 80, 2-methyl-6-[({[1-(2-methylpropyl)-1H-imidazol-2-yl]methyl}amino)methyl]pyridine-4-carboxylic acid]: the IC50 in test [1] (setting [5]) was 683 nM; in test [2] (setting [6]) it was > 10000 nM; in test [2] (setting [7]) it was > 10000 nM; in test [3] (setting [8]), 5300 nM; in test [4], 1990 nM.
Turning to `O=C(O)c1cc(CO)nc(CNCc2nncn2Cc2ccc(F)cc2)c1` [Compound 62, 2-{[({4-[(4-fluorophenyl)methyl]-4H-1,2,4-triazol-3-yl}methyl)amino]methyl}-6-(hydroxymethyl)pyridine-4-carboxylic acid], the IC50 was 244 nM in test [1] (setting [5]), 7370 nM in test [2] (setting [7]), 307 nM in test [3] (setting [8]) and 231 nM in test [4].
Regarding `Cc1nc(CNCc2cc(C(=O)O)cc(CO)n2)n(Cc2ccc(F)cc2)c1C` [Compound 83, 2-{[({1-[(4-fluorophenyl)methyl]-4,5-dimethyl-1H-imidazol-2-yl}methyl)amino]methyl}-6-(hydroxymethyl)pyridine-4-carboxylic acid], the IC50 was 1520 nM in test [1] (setting [5]); > 10000 nM in test [2] (setting [6]); > 10000 nM in test [2] (setting [7]); 4950 nM in test [3] (setting [8]); 755 nM in test [4].
For `O=C(O)c1cc(CO)nc(CNCc2nnc(Cc3cccs3)n2Cc2ccc(F)cc2)c1` [Compound 71, 2-{[({4-[(4-Fluorophenyl)methyl]-5-(thiophen-2-ylmethyl)-4H-1,2,4-triazol-3-yl}methyl)amino]methyl}-6-(hydroxymethyl)pyridine-4-carboxylic acid], the IC50 was 138 nM in test [1] (setting [5]); > 10000 nM in test [2] (setting [6]); > 10000 nM in test [2] (setting [7]); 1780 nM in test [3] (setting [8]); > 10000 nM in test [4] (setting [9]); > 10000 nM in test [4] (setting [10]).
As to `Cc1cc(C(=O)O)cc(CNCCc2nncn2Cc2ccc(C(F)(F)F)cc2)n1` [Compound 60, 2-methyl-6-({[2-(4-{[4-(trifluoromethyl)phenyl]methyl}-4H-1,2,4-triazol-3-yl)ethyl]amino}methyl)pyridine-4-carboxylic acid], the IC50 in test [1] (setting [5]) was 1620 nM; in test [2] (setting [6]), > 10000 nM; in test [2] (setting [7]) it was > 10000 nM; in test [3] (setting [11]), > 10000 nM; in test [3] (setting [8]), > 10000 nM; in test [4] (setting [10]) it was 526 nM.
